Assay results from US20160220590A1, “Formulations and Dosage Forms of Oxidized Phospholipids” (Vascular Biogenics Ltd., priority 2011, published 2016).

Tests used:
[1] = Pharmacokinetic study, single oral dose of 40 mg VB-201 to human subjects; assay type: in vivo; settings: single oral dose 40 mg VB-201, in all subjects
Procedure: Pharmacokinetic studies were performed using two different VB-201 formulations (formulation 10 of Example 13 and formulation 4 of Example 11). Single oral doses of 40 mg VB-201 were administered to 26 human subjects for each formulation, and the VB-201 plasma concentrations were measured for a period of 144 hours after dosing for each subject.

[2] = Solubility of VB-201 in Lauroglycol FCC; assay type: physicochemical; settings: in Lauroglycol FCC (propylene glycol laurate)
Description: (§1) VB-201 was also found to be stable in Lauroglycol FCC over the course of 66 days (data not shown).

[3] = Aqueous solubility of VB-201; assay type: physicochemical; settings: at each tested pH: 0.1 M HCl (pH 1), 50 mM phosphate buffers (pH 5 and 7)
Procedure: The aqueous solubility of VB-201 was determined by suspending VB-201 in aqueous solutions of 0.1 M HCl (pH 1) or in 50 mM phosphate buffers (pH 5 and 7). After initial hand mixing, the preparations were further mixed by vortexing and bath sonication to try to bring about dissolution of the drug. Optical microscopy was used to examine for the presence of undissolved material. […] Thus, VB-201′ is relatively water-soluble.

[4] = Stability of VB-201 in Lauroglycol FCC; assay type: physicochemical; settings: over the course of 66 days; data not shown
Description: as §1

[5] = Solubility of VB-201 in molten PEG6000; assay type: physicochemical; settings: 65° C. to 105° C., 30 hours; no detectable VB-201
Procedure: Nine pieces of caked, non-ground VB-201 were submerged in molten PEG6000 at 65° C. and stirred slowly using a paddle mixer. The mix was held for approximately two hours at this temperature, examined visually for the dissolution state of the VB-201, and three samples of the liquid PEG6000 were then taken for analysis. The temperature was then raised by 10° C. and the process was repeated. The process was repeated in 10° C. steps until the mix reached a final temperature of 105° C. The entire process lasted 30 hours.
After 30 hours and at a temperature of 105° C., the PEG6000 had slowly turned lightly yellow (normal for prolonged heating of PEG6000 in air), yet there was no significant visible dissolution of VB-201 or reduction in size of the VB-201 pieces. After taking the final analytical samples the VB-201 pieces were removed from the melt, dried from PEG6000, and weighed.

[6] = oral, daily dosages of 80 mg VB-201 per day or less; cited from earlier work

time VB-201 plasma concentrations were above the assay limit of quantification [1]: at least 96 hours | solubility of VB-201 in Lauroglycol FCC [2]: at least 255 mg per gram | aqueous solubility of VB-201 [3]: > 225 mg/gram | stability in Lauroglycol FCC [4]: stable | VB-201 concentration in molten PEG6000 [5]: < 0.5 mg/gram
Compound: CCCCCCCCCCCCCCCCOCC(COP(=O)([O-])OCC[N+](C)(C)C)OCCCCC(=O)O (stereo not drawn) [VB-201, 1-hexadecyl-2-(4′-carboxybutyl)-glycero-3-phosphocholine]
safety and tolerability [6]: safe, well-tolerated
